According to ChEMBL document CHEMBL5113414, “New TRPM8 blockers exert anticancer activity over castration-resistant prostate cancer models” (Eur J Med Chem, 2022):
Active and inactive are the calls of the source. The rule behind the calls is not given here.

Legend:
[1] = molecular target: T1, Transient receptor potential cation channel subfamily M member 8 (Rattus norvegicus, UniProt Q8R455); test: Antagonist activity at rat TRPM8 channel transfected in HEK293 cells assessed as inhibition of calcium currents by Fluo-4 NW dye based fluorimetric assay; format: cell-based
[2] = molecular target: T1, Transient receptor potential cation channel subfamily M member 8; test: Antagonist activity at rat TRPM8 channel transfected in HEK293 cells assessed as inhibition of menthol-induced calcium currents at -60 mV measured for 90 secs by whole cell patch clamp method; format: cell-based
[3] = molecular target: Transient receptor potential cation channel subfamily M member 8 (Rattus norvegicus) (UniProt Q8R455); test: Inhibition of rat TRPM8 channel transfected in HEK293 cells assessed as inhibition of menthol-induced calcium currents at 0.01 to 10 uM at -60 mV measured for 90 secs by whole cell patch clamp method; format: cell-based; details: dose 0.01-10 µM, time 90.0 sec, DDE = dose-dependent effect
[4] = tested on: CWR22R; test: Inhibition of R1881-induced DNA synthesis in human 22Rv1 cells at 1 to 10 uM incubated for 18 hrs by BrdU incorporation assay; format: functional, cell-based; details: dose 1-10 µM
[5] = tested on: LNCaP C4-2B; test: Inhibition of androgen-resistant human LNCaP C4-2B cells at 1 uM incubated for 18 hrs by BrdU incorporation assay; format: functional, cell-based
[6] = tested on: PNT2; test: Inhibition of R1881-induced DNA synthesis in human PNT2 cells at 10 uM incubated for 18 hrs by BrdU incorporation assay; format: functional, cell-based
[7] = tested on: PNT2; test: Inhibition of DNA synthesis in human PNT2 cells at 0.01 to 10 uM incubated for 18 hrs by BrdU incorporation assay; format: functional, cell-based; details: dose 0.01-10 µM
[8] = tested on: PC-3; test: Inhibition of DNA synthesis in human PC-3 cells at 0.01 to 10 uM incubated for 18 hrs by BrdU incorporation assay; format: functional, cell-based; details: dose 0.01-10 µM
[9] = tested on: LNCaP; test: Inhibition of R1881-induced cell spheroid size of human LNCaP cells at 1 uM with medium replacement for every 3 days incubated for 17 days by phase contrast microscopy; format: functional, cell-based; details: time 17.0 day
[10] = tested on: CWR22R; test: Inhibition of R1881-induced cell spheroid size of human 22Rv1 cells at 1 uM with medium replacement for every 3 days incubated for 17 days by phase contrast microscopy; format: functional, cell-based; details: time 17.0 day
[11] = tested on: LNCaP; test: Inhibition of R1881-induced DNA synthesis in human LNCaP cells at 0.01 to 10 uM incubated for 18 hrs by BrdU incorporation assay; format: functional, cell-based; details: dose 0.01-10 µM
[12] = tested on: LNCaP C4-2B; test: Inhibition of androgen-resistant human LNCaP C4-2B cells at 0.1 uM incubated for 18 hrs by BrdU incorporation assay; format: functional, cell-based
[13] = tested on: PNT2; test: Inhibition of R1881-induced DNA synthesis in human PNT2 cells at 1 uM incubated for 18 hrs by BrdU incorporation assay; format: functional, cell-based

T1 sequence (Q8R455 whole entry): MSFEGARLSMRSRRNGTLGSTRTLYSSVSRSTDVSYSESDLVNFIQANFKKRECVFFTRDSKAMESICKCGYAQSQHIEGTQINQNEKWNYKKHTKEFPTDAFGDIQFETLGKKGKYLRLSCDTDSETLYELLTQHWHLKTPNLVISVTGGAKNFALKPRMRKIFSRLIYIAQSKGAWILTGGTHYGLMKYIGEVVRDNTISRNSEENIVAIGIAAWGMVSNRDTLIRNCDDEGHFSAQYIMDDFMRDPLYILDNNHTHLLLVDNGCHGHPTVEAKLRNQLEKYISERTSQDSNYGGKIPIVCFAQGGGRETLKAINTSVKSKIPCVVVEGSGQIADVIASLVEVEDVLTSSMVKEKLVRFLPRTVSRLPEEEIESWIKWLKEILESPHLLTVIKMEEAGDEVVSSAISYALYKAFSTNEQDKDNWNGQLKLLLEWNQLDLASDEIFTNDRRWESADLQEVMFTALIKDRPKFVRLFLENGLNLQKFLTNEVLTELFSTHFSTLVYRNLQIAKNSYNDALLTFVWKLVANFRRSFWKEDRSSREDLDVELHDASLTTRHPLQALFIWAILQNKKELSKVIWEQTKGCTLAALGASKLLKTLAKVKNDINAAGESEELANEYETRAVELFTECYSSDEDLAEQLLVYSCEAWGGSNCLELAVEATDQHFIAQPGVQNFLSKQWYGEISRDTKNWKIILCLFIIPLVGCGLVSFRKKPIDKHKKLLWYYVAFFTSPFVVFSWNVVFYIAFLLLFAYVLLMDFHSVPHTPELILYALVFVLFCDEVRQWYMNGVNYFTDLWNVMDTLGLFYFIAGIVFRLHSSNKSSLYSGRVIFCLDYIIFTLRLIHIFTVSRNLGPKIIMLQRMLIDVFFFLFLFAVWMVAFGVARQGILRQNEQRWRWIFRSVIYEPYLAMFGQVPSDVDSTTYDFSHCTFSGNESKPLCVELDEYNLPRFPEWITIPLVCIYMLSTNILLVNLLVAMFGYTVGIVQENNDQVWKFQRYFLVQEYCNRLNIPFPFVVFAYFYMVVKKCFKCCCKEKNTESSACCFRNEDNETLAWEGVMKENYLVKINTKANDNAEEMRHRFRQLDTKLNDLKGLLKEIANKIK
Chain of Transient receptor potential cation channel subfamily M member 8 (Rattus norvegicus) (Q8R455 whole entry, looked up): as the sequence (Q8R455 whole entry) above

In the case of `COC(=O)[C@H](Cc1ccc(O)c(O)c1)N(Cc1ccccc1)Cc1ccccc1`, the IC50 [1] is reported as 490 nM, the IC50 [2] is reported as 100 nM and the inhibition [3] is reported as “Dde”. For the same compound, the inhibition [4] was “Active”, the inhibition [5] was “Active” and the inhibition [6] was “Active”. For the same compound, the inhibition [7] was “Active”, the inhibition [8] was “Active” and the inhibition [9] was “Active”. The inhibition [10] was “Active”.
In the case of `COC(=O)[C@H](Cc1ccc([N+](=O)[O-])cc1)N(Cc1ccccc1)Cc1ccccc1`, the IC50 [1] is reported as 110 nM, the IC50 [2] is reported as 60 nM and the inhibition [3] is reported as “Dde”. The inhibition [11] was “Active”, the inhibition [4] was “Active” and the inhibition [5] was “Active”. For the same compound, the inhibition [12] was “Active”, the inhibition [6] was “Active” and the inhibition [7] was “Active”. For the same compound, the inhibition [8] was “Active”, the inhibition [9] was “Active” and the inhibition [10] was “Active”.
Work on `COC(=O)[C@H](Cc1ccc(C)cc1)N(Cc1ccccc1)Cc1ccccc1` yielded an IC50 [1] of 290 nM.
`O=C1[C@@H]2Cc3cc(O)c(O)cc3[C@@H](c3ccc(F)cc3)N2C(=O)N1c1cccc(C(F)(F)F)c1` was tested, and the IC50 [1] was 1200 nM.
For `COC(=O)[C@H](Cc1ccc(Cl)cc1)N(Cc1ccccc1)Cc1ccccc1`, the IC50 [1] was 280 nM.
In the case of `O=C1[C@H]2Cc3cc(O)c(O)cc3[C@H](c3ccc(F)cc3)N2C(=O)N1c1cccc(C(F)(F)F)c1`, the IC50 [1] is reported as 2100 nM.
`COC(=O)[C@H](Cc1ccc(O)cc1)N(Cc1ccccc1)Cc1ccccc1` was tested, and the IC50 [1] was 250 nM.
`O=C(NCc1ccc(F)cc1)[C@@H]1Cc2cc(O)c(O)cc2[C@@H](c2ccc(F)cc2)N1` showed an IC50 [1] of 850 nM.
Work on `COC(=O)[C@H](Cc1ccccc1)N(Cc1ccccc1)Cc1ccccc1` yielded an IC50 [1] of 320 nM.
For `O=C1[C@@H]2Cc3cc(O)c(O)cc3[C@@H](c3ccc(F)cc3)N2C(=O)N1Cc1ccc(F)cc1`, the IC50 [1] was 1700 nM.
`COC(=O)[C@H](Cc1ccc(N)cc1)N(Cc1ccccc1)Cc1ccccc1` was tested, and the IC50 [1] was 210 nM, the IC50 [2] was 110 nM and the inhibition [3] was “Dde”. The inhibition [11] was “Active”, the inhibition [4] was “Active” and the inhibition [5] was “Active”. The inhibition [6] was “Active”, the inhibition [13] was “Active” and the inhibition [7] was “Active”. For the same compound, the inhibition [8] was “Active”, the inhibition [9] was “Active” and the inhibition [10] was “Active”.
In the case of `O=C(NCc1ccc(F)cc1)[C@@H]1Cc2cc(O)c(O)cc2[C@H](c2ccc(F)cc2)N1`, the IC50 [1] is reported as 17500 nM.
Work on `O=C1[C@H]2Cc3cc(O)c(O)cc3[C@H](c3ccc(F)cc3)N2C(=O)N1Cc1ccc(F)cc1` yielded an IC50 [1] of 2200 nM.
